Columns and labels:
Format in all cases: functional
Conditions in all cases: read-out: IZ
[1] = tested on: Candida albicans; assay: Antifungal activity against Candida albicans ATCC 10231 at 200 ug/ml by cup-plate method
[2] = tested on: Staphylococcus aureus; assay: Antibacterial activity against Staphylococcus aureus ATCC 9144 at 200 ug/ml by cup-plate method
[3] = tested on: Pseudomonas aeruginosa; assay: Antibacterial activity against Pseudomonas aeruginosa ATCC 9027 at 100 ug/ml by cup-plate method
[4] = tested on: Escherichia coli; assay: Antibacterial activity against Escherichia coli ATCC 25922 at 100 ug/ml by cup-plate method
[5] = tested on: Escherichia coli; assay: Antibacterial activity against Escherichia coli ATCC 25922 at 200 ug/ml by cup-plate method
[6] = tested on: Pseudomonas aeruginosa; assay: Antibacterial activity against Pseudomonas aeruginosa ATCC 9027 at 200 ug/ml by cup-plate method
[7] = tested on: Candida albicans; assay: Antifungal activity against Candida albicans ATCC 10231 at 100 ug/ml by cup-plate method
[8] = tested on: Bacillus subtilis; assay: Antibacterial activity against Bacillus subtilis ATCC 6633 at 200 ug/ml by cup-plate method
[9] = tested on: Staphylococcus aureus; assay: Antibacterial activity against Staphylococcus aureus ATCC 9144 at 100 ug/ml by cup-plate method
[10] = tested on: Bacillus subtilis; assay: Antibacterial activity against Bacillus subtilis ATCC 6633 at 100 ug/ml by cup-plate method

| SMILES | zone of inhibition at 200 µg/mL [1] [mm] | zone of inhibition at 200 µg/mL [2] [mm] | zone of inhibition at 100 µg/mL [3] [mm] | zone of inhibition at 100 µg/mL [4] [mm] | zone of inhibition at 200 µg/mL [5] [mm] | zone of inhibition at 200 µg/mL [6] [mm] | zone of inhibition at 100 µg/mL [7] [mm] | zone of inhibition at 200 µg/mL [8] [mm] | zone of inhibition at 100 µg/mL [9] [mm] | zone of inhibition at 100 µg/mL [10] [mm] |
| --- | --- | --- | --- | --- | --- | --- | --- | --- | --- | --- |
| COc1ccc2nc(Nc3ncccc3C(=O)N3CCNC(Cl)C3Cl)sc2c1 (stereo not given) | 6 | 6 | 4 | 8 | 9 | 7 | 4 | 2 | 5 |  |
| O=C(c1cccnc1Nc1nc2cc(Cl)ccc2s1)N1CCNC(Cl)C1Cl (stereo not given) | 2 | 0 | 0 | 2 | 3 | 2 | 1 | 5 | 0 | 5 |
| O=C(c1cccnc1Nc1nc2ccc([N+](=O)[O-])cc2s1)N1CCN(CCO)CC1 | 2 | 9 | 6 | 0 | 5 | 8 | 0 | 6 | 8 | 0 |
| O=C(c1cccnc1Nc1nc2c([N+](=O)[O-])cccc2s1)N1CCNC(Cl)C1Cl (stereo not given) | 4 | 10 | 8 | 9 | 10 | 9 | 2 | 10 | 8 | 5 |
| O=C(c1cccnc1Nc1nc2cc([N+](=O)[O-])ccc2s1)N1CCNC(Cl)C1Cl (stereo not given) | 4 | 9 | 5 | 4 | 5 | 6 | 1 | 7 | 6 | 8 |
| O=C(c1cccnc1Nc1nc2cc([N+](=O)[O-])ccc2s1)N1CCN(CCO)CC1 | 4 | 11 | 7 | 4 | 8 | 7 | 2 | 8 | 6 | 8 |
| COc1cccc2sc(Nc3ncccc3C(=O)N3CCNC(Cl)C3Cl)nc12 (stereo not given) | 4 | 6 | 7 | 0 | 4 | 8 | 3 | 9 | 6 | 8 |
| COc1cccc2sc(Nc3ncccc3C(=O)N3CCN(CCO)CC3)nc12 | 4 | 8 | 7 | 3 | 3 | 9 | 4 | 10 | 6 | 6 |
| Cc1ccc2nc(Nc3ncccc3C(=O)N3CCNC(Cl)C3Cl)sc2c1 (stereo not given) | 5 | 4 | 0 | 3 | 3 | 0 | 2 | 0 | 3 | 0 |
| O=C(c1cccnc1Nc1nc2c(Cl)cccc2s1)N1CCN(CCO)CC1 | 6 | 7 | 7 | 6 | 9 | 9 | 3 | 8 | 7 | 7 |
| CC1(C)S[C@@H]2[C@H](NC(=O)[C@H](N)c3ccccc3)C(=O)N2[C@H]1C(=O)O [AMPICILLIN] |  | 28 | 18 | 18 | 30 | 31 |  | 30 | 15 | 17 |
| CC1(C)S[C@@H]2[C@H](NC(=O)[C@H](N)c3ccc(O)cc3)C(=O)N2[C@H]1C(=O)O [AMOXICILLIN] |  | 24 | 15 | 16 | 28 | 27 |  | 29 | 13 | 16 |
| CC1(C)S[C@@H]2[C@H](NC(=O)Cc3ccccc3)C(=O)N2[C@H]1C(=O)O [PENICILLIN G] |  | 21 | 13 | 14 | 25 | 22 |  | 25 | 12 | 14 |
| O=C(c1cccnc1Nc1nc2ccc([N+](=O)[O-])cc2s1)N1CCNC(Cl)C1Cl (stereo not given) | 3 | 8 | 6 | 6 | 6 | 8 | 0 | 7 | 8 | 7 |
| O=C(c1cccnc1Nc1nc2ccc(Cl)cc2s1)N1CCNC(Cl)C1Cl (stereo not given) | 1 | 10 | 8 | 7 | 9 | 8 | 0 | 6 | 7 | 5 |
| O=C(c1cccnc1Nc1nc2c(Cl)cccc2s1)N1CCNC(Cl)C1Cl (stereo not given) | 6 | 4 | 3 | 4 | 5 | 3 | 3 | 6 | 3 | 3 |
| O=C(c1cccnc1Nc1nc2ccc(Cl)cc2s1)N1CCN(CCO)CC1 | 1 | 9 | 7 | 6 | 10 | 10 | 0 | 9 | 8 | 7 |
| C[C@@H]1[C@H](O)[C@@H](C)/C=C/C=C/C=C/C=C/C=C/C=C/C=C/[C@H](O[C@@H]2O[C@H](C)[C@@H](O)[C@H](N)[C@@H]2O)C[C@@H]2O[C@](O)(C[C@@H](O)C[C@@H](O)[C@H](O)CC[C@@H](O)C[C@@H](O)CC(=O)O[C@H]1C)C[C@H](O)[C@H]2C(=O)O [AMPHOTERICIN B] | 18 |  |  |  |  |  | 8 |  |  |  |
| Cc1ccc2sc(Nc3ncccc3C(=O)N3CCN(CCO)CC3)nc2c1 | 2 | 10 | 5 | 6 | 10 | 6 | 1 | 8 | 8 | 8 |
| COc1ccc2nc(Nc3ncccc3C(=O)N3CCN(CCO)CC3)sc2c1 | 5 | 9 | 4 | 8 | 8 | 5 | 0 | 4 | 8 | 0 |
| O=C(c1cccnc1Nc1nc2ccccc2s1)N1CCN(CCO)CC1 | 5 | 7 | 8 | 7 | 8 | 9 | 3 | 10 | 6 | 6 |
| O=C(c1cccnc1Nc1nc2c([N+](=O)[O-])cccc2s1)N1CCN(CCO)CC1 | 7 | 12 | 8 | 5 | 9 | 11 | 4 | 9 | 8 | 8 |
